What was measured:
[1] = molecular target: T1, GAL4-human ERRα LBD fusion (Homo sapiens, UniProt P11474); assay: Transient transfection luciferase assay, GAL4-human ERRα LBD fusion with Gal4-TK-Luc reporter in HeLa cells; type: cell-based; conditions: pM-ERRα LBD, 24 h, mean ± SD
T1 construct: GAL4-human ERRα LBD fusion expression plasmid; expressed in transfected cells; host or cells: HeLa
T1 sequence (P11474 193-421 limits assumed): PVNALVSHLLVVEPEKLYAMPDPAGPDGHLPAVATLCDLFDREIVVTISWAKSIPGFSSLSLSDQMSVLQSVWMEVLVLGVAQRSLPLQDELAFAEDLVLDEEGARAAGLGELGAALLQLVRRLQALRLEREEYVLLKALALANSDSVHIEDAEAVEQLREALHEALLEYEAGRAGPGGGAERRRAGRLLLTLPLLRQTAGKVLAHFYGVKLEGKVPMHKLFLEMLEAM
Experimental: Referring to FIG. 2, we have also prepared GAL4-ERRα expression plasmid and luciferase reporter plasmids with GAL4 response element. This is a more sensitive assay method than that using pSG5-ERRα and ERE luciferase reporter plasmids.
To evaluate the functional significance of the interaction of chalcones with ERRα, we incubated these compounds with HeLa cells which were transiently transfected with human ERRα expression plasmid and a luciferase reporter plasmid containing SF1 binding site. […] In order to confirm the results above, HeLa cells were transiently transfected with GAL4-human ERRα LBD fusion expression plasmid and a luciferase reporter plasmid containing GAL4 binding site. […] Most of the compounds, however, have similar IC50 value, and have a similar potency.
(§1) Referring to FIG. 2, HeLa cells were cotransfected with pM-ERRα LBD (0.5 μg) and luciferase reporter plasmid containing GAL4 binding site and TK promoter (0.25 μg). The transfected cells were incubated with Compound No. 1-9 for 24 h. After cells were washed with 1× PBS, luciferase activity was measured. Values represent the mean±SD.

ERRγ = molecular target: T2, ERRγ (Homo sapiens, UniProt P62508); assay: Transient transfection luciferase assay with pSG5-ERRg and SF1-SV40 reporter in HeLa cells; type: cell-based; conditions: for IC50: HeLa cells, 24 h, average of at least two experiments; for Antagonistic properties on ERRg (in words): transient transfection
T2 construct: expressed in transfected cells; host or cells: HeLa
T2 sequence (P62508 1-458): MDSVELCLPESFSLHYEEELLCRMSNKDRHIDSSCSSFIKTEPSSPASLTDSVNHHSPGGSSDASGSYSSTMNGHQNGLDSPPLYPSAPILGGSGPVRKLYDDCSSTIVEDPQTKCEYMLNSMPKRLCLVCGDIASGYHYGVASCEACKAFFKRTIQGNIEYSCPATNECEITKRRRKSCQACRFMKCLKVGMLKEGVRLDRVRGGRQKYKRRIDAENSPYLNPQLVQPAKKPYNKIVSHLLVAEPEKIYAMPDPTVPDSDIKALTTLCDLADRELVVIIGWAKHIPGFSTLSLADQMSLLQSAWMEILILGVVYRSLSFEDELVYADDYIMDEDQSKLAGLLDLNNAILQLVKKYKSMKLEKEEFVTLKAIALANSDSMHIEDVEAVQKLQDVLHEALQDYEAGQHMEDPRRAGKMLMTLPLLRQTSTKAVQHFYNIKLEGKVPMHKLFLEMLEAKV

[2] = test system: promoter I.3 of human aromatase gene (through ERRα); assay: Aromatase promoter I.3 luciferase reporter with pSG5-ERRα in HepG2 cells; type: cell-based; conditions: 24 h, FIG. 5
Experimental: Aromatase expression is regulated by several promoters, including ERRα modulating promoter I.3. In order to evaluate the effect of chalcones on aromatase activity through ERRα, transient transfection experiments using luciferase reporter plasmid containing a regulatory element S1 and promoter I.3 of human aromatase gene were performed in HepG2 cells. The transfected cells were incubated with chalcones, and luciferase activity was measured.
as §1, with “5, HepG2” for “2, HeLa”, “pSG5-ERRα (2” for “pM-ERRα LBD (0.5”, “S1” for “GAL4 binding site”, “and” for “and TK”, “I.3 of human aromatase gene (0.5” for “(0.25”

[3] = molecular target: T3, human placental microsomal aromatase (Homo sapiens, UniProt P11511); assay: In vitro aromatase inhibition assay on human placental microsomal aromatase preparation; type: biochemical; conditions: increasing concentrations (200 pM-200 mM), FIG. 6A
T3 construct: performed on a human placental microsomal aromatase preparation; from tissue; host or cells: human placenta, microsomes
T3 sequence (P11511 1-503): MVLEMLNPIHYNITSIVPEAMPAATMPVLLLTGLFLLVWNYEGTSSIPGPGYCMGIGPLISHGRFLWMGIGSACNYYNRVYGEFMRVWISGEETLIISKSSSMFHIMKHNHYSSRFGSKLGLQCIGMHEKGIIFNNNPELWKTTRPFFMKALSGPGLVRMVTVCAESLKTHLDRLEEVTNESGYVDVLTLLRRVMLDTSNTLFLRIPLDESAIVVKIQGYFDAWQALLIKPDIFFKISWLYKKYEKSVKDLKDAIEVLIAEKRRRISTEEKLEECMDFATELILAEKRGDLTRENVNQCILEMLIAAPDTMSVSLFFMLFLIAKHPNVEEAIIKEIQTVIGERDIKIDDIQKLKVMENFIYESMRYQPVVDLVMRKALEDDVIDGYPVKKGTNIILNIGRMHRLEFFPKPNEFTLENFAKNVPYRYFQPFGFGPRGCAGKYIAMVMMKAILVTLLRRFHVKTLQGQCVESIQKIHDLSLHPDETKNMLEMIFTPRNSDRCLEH
Experimental: (§2) To evaluate the effect of chalcones on aromatase activity, we performed both in vitro assay and in-cell assay with chalcones. […] In addition, MCF-7 aro cells, which are stable aromatase-expressing breast cancer cell line, were incubated with chalcones.
(§3) Referring to FIG. 6, the effect of Compound No. 1-9 on aromatase activity was investigated by both in vitro inhibition assay (A) and in-cell aromatase assay (B; MCF-7 aro cells, C; HepG2 cells, D; SK-BR-3 cells). Referring to FIG. 6A, aromatase inhibition study with Compound No. 1-9 was performed on a human placental microsomal aromatase preparation using the assay procedures described in (9). Referring to FIG. 6B, MCF-7 aro cells, which are stable aromatase-expressing cell line generated in our laboratory (10), were incubated with 10 μM of Compound No. 1-9. After 24 h incubation, aromatase activity was measured by [3H] H20 release method. HepG2 cells, as shown in FIG. 6C and SK-BR-3 cells as shown in FIG. 6D were also incubated with Compound No. 1-9 for 24 h, and aromatase activities were measured. Values represent the mean±SD.

[4] = molecular target: T4, aromatase in MCF-7 aro cells (Homo sapiens, UniProt P11511); assay: In-cell aromatase assay ([3H] H2O release) in MCF-7 aro cells; type: cell-based; conditions: 10 μM, 24 h, FIG. 6B
T4 construct: expressed in transfected cells
T4 sequence (P11511 1-503): T3 sequence (P11511 1-503)
Experimental: as §2, §3

Row | SMILES | IC50 [1] [pM] | IC50 (ERRγ) [nM] | Antagonistic properties on ERRg (in words) (ERRγ) | Effect on promoter I.3 activity [2] | Effect on aromatase activity, in vitro assay [3] | Effect on aromatase activity, in-cell assay, MCF-7 aro cells [4]
1 | COc1cccc(/C=C/C(=O)c2ccc(O)cc2O)c1OC [Compound No. 1-9, 2′,4′-Dihydroxy-2,3-dimethoxychalcone] | 1.1e+06 ± 700000 | 8000 | showed antagonistic properties | suppressed the promoter I.3 activity in a dose-dependent manner | did not inhibit aromatase activity | did not inhibit aromatase activity
2 | O=C(/C=C/c1ccccc1O)c1ccc(O)cc1O [Compound No. 7-5, 2,2′,4′-Trihydroxychalcone] | 900000 ± 400000 | 3700 | showed antagonistic properties | – | – | –
